Like-named read-outs stand apart in the source and are kept apart here.
Experiments:
human 5HT2b receptor = human 5HT2b receptor (Homo sapiens, UniProt P41595); experiment: 5HT2b Binding Procedure (competition binding with 3H-LSD, CHO cell membranes)
Protocol: Affinity of compounds for the human 5HT2b receptor is determined by competition binding using membranes prepared from Chinese hamster ovary (CHO) cells containing the tetracycline operator (Flp-In Trex system—Invitrogen) that were engineered to express the human 5HT2b receptor. […] The supernatant was removed and discarded, while the pellet was resuspended in homogenization buffer, then centrifuged for 20 minutes at 25,000×g at 4° C. The supernatant was discarded while the pellet (containing membranes) was resuspended in homogenization buffer, and the membranes were aliquoted and frozen at −80° C. The binding assay was set up in 96-well plates, which contained 2 μl of test compound (in 100% DMSO) then 100 μl of ^3H-LSD (final concentration=3 nM) diluted in assay buffer (50 mM Tris pH 7.4, 4 mM CaCl2, 0.1% Ascorbic Acid), followed by the addition of 100 μl of membranes (approximately 15 μg membrane protein, diluted in assay buffer) from 5HT2b -expressing cells. 1 μM mianserin was used to calculate non-specific binding. The assay plates were incubated at 37° C. for 60 minutes, then the assay was terminated by filtration onto 96-well UniFilter™ plates (with GF/C filters—from PerkinElmer™) which were pre-soaked in 0.3% PEI. The filterplates were washed 2× with cold wash buffer (50 mM Tris, pH 7.4), then dried, scintillation fluid added and radioactivity determined in a Wallac Microbeta™ plate scintillation counter (PerkinElmer™). Concentration-response curves of the % inhibition of specific binding by test compounds versus the test compound concentration, was used to determine the IC50 for each compound and the Ki value calculated based on the Cheng-Prusoff equation (Ki=IC50/(1+(L/Kd)), where L is the concentration of the radioligand used in the binding assay and the Kd is based on previous saturation studies with the radioligand.

human 5HT2c receptor = biological target: T1, human 5HT2c receptor (Homo sapiens, UniProt P28335); experiment: 5HT2c Binding Procedure (competition binding against 3H-5HT, membranes of transfected Swiss 3T3 mouse cells)
T1 construct: expressed in transfected cells; host or cells: Swiss 3T3 mouse cells (ATCC)
T1 sequence (P28335 33-458): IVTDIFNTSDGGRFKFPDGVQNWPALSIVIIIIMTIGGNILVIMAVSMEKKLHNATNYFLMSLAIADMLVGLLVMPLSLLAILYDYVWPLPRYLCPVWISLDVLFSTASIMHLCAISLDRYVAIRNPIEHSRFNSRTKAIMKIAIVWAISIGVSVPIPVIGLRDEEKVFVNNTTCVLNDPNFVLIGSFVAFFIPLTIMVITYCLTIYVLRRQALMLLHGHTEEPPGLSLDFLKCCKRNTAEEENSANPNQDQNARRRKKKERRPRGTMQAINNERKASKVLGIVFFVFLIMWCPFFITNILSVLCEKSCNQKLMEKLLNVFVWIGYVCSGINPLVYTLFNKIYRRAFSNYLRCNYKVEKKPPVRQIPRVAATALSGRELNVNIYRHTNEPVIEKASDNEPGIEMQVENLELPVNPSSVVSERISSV
Protocol: Affinity of compounds at the serotonin 5HT2c binding site is determined by competition binding in Swiss 3T3 mouse cells (available from the American Type Culture Collection (ATCC), Manassas, Va.) transfected with the human 5HT2c receptor against ^3H-5HT.

rat 5HT2a receptor = biological target: T2, rat 5HT2a receptor (Rattus norvegicus, UniProt P14842); experiment: 5HT2a Binding Procedure (competition binding using 125I-DOI, membranes of transfected NIH 3T3 mouse cells)
T2 construct: expressed in transfected cells; host or cells: NIH 3T3 mouse cells
Protocol: Affinity of compounds at the serotonin 5HT2a binding site is determined by competition binding in NIH 3T3 mouse cells transfected with the rat 5HT2a receptor using 125I-DOI.

[1] = cited from earlier work
[2] = receptor binding, 5HT2c, read-out: 2cKi
[3] = receptor binding, 5HT2a, read-out: 2aKi

T2 sequence (P14842 whole entry): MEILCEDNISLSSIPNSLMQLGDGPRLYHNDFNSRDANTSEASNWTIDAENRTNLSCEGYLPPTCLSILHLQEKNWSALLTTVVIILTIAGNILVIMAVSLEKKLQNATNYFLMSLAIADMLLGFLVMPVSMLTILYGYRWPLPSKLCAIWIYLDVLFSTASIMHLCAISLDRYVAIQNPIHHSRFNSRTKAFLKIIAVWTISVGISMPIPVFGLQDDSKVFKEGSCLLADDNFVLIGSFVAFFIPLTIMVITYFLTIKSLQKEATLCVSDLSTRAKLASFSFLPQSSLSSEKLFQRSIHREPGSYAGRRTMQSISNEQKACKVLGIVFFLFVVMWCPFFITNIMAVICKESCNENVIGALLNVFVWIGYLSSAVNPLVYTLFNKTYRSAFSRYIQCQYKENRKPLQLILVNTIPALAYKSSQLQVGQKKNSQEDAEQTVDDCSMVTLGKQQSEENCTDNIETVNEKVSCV
Chain of human 5HT2b receptor (P41595 whole entry): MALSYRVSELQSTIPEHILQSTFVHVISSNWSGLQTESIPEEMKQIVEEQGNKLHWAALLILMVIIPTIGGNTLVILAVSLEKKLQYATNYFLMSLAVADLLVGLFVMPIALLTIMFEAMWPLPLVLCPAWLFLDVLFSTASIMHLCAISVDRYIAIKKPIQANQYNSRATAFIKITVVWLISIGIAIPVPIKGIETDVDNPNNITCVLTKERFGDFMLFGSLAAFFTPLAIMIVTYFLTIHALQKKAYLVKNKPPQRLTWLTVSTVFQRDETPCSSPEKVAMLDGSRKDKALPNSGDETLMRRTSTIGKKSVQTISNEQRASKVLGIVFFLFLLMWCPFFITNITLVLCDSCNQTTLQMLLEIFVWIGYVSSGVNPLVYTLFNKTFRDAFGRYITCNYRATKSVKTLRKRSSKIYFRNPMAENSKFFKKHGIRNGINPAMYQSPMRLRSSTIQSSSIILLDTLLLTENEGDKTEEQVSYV

| SMILES | Ki (human 5HT2b receptor) [µM] | Ki (human 5HT2c receptor) [µM] | Ki (rat 5HT2a receptor) [µM] | Ki (human 5HT2c receptor; [2]) [µM] | Ki (rat 5HT2a receptor; [3]) [µM] | further results |
| --- | --- | --- | --- | --- | --- | --- |
| Fc1ccc(F)c(CO[C@H]2CCc3ccc(N4CCNCC4)nc32)c1 [Example 1A-37, (7S)-7-[(2,5-difluorobenzyl)oxy]-2-piperazin-1-yl-6,7-dihydro-5H-cyclopenta[b]pyridine] | 0.159 | 0.0266 | 0.025 | – | – | – |
| Fc1cc2c(c(O[C@H]3CCc4ccc(N5CCNCC5)nc43)c1)CCC2 [Example 3A-76, (7S)-7-[(6-fluoro-2,3-dihydro-1H-inden-4-yl)oxy]-2-piperazin-1-yl-6,7-dihydro-5H-cyclopenta[b]pyridine] | 0.053 | – | – | 0.003 | 0.0028 | – |
| c1ccc2c(O[C@H]3CCc4ccc(N5CCNCC5)nc43)cncc2c1 [Example 3A-83, 4-{[(7S)-2-piperazin-1-yl-6,7-dihydro-5H-cyclopenta[b]pyridin-7-yl]oxy}isoquinoline] | – | 0.0179 | 0.0468 | – | – | Ki (human 5HT2b receptor; read-out: 2bKi, receptor binding, 5HT2b): 0.145 µM |
| C[C@@H]1CNCCN1c1ccc2c(n1)[C@@H](OCc1cccc(C#N)c1)CC2 [Example 2A-4, 3-[({(7S)-2-[(2R)-2-methylpiperazin-1-yl]-6,7-dihydro-5H-cyclopenta[b]pyridin-7-yl}oxy)methyl]benzonitrile] | 0.803 | – | – | 0.0069 | 0.0339 | – |
| O=C1Cc2cc(CCN3CCN(c4nsc5ccccc45)CC3)c(Cl)cc2N1 [Ziprasidone, 5-[2-[4-(1,2-benzisothiazol-3-yl)piperazin-1-yl]ethyl]-6-chloroindolin-2-one] | – | – | – | – | – | half-life ([1]; in vivo): 6 to 7 h; protein binding ([1]; in vivo): extensive; Oral bioavailability ([1]; taken with food): approximately 60% |
| C[C@@H]1CNCCN1c1ccc2c(n1)[C@@H](Oc1ccccc1F)CC2 [Example 4A-4] | 0.021 | – | – | 0.00511 | 0.00414 | – |

— patent US7507732B2, “Cyclopentapyridine and tetrahydroquinoline derivatives” (Pfizer Inc., priority 2005, dated 2009)
